# Data as given in patent US20230047766A1, “MEDICAL DEVICE, THERAPEUTIC METHOD, AND DIAGNOSTIC METHODS FOR THE TREATMENT AND PREVENTION OF VASOSPASM” (Sylvian Inc., priority 2020, published 2023).
# What was measured:
# ET-1 = conditions: intravenous; clinical trial databases; cited from earlier work
# rats = assay: intrathecal (IT) administration to rats: Evans blue distribution and maximum dose volume of saline for 30 minutes; conditions: rat, in vivo
# Protocol: A first experiment was conducted to establish a procedure of intrathecal (IT) administration to rats to determine the maximum dose volume by IT administration of saline for 30 minutes. An approximately 30 μL of 1.0% Evans blue solution was administered to 6 anesthetized rats via a catheter placed in the subarachnoid space in the cisternal magna. After administration, the animals were necropsied, and the central nervous system (CNS) including the brain and cervical spinal cord were macroscopically observed to verify the distribution of Evans blue solution. In addition, 0.125, 0.25, 0.5, and 1.0 mL of saline, which is considered to be respectively approximately ½, equal, 2-fold, and 4-fold of a total volume of CSF in rats, was administered to 1 or 3 unanesthetized rats per dose volume. Saline was administered for 30 minutes using an infusion pump. Clinical signs were observed during the dosing and until 1 hour after dosing. The animals were necropsied on the next day of dosing and the CNS were macroscopically observed.
# dogs = assay: intrathecal (IT) administration to dogs: Evans blue distribution and maximum dose volume of saline for 30 minutes; type: in vivo; conditions: anesthetized dogs, approx. 1 mL of 0.5% solution, catheter near the bregma
# Protocol: A second experiment was conducted to establish a procedure of IT administration to dogs to determine the maximum dose volume by IT administration of saline for 30 minutes. An approximately 1 mL of 0.5% Evans blue solution was administered to 4 anesthetized dogs via a catheter placed in the subarachnoid space near the bregma. After the administration, the animals were necropsied, and the CNS was macroscopically observed to verify the distribution of the Evans blue solution. In addition, 8 or 4 mL of saline, which is considered to be respectively approximately […] of a total volume of CSF, was administered to 6 unanesthetized dogs under a restrained condition. Saline was administered during the dosing and until 1 hour after dosing. The animals were necropsied on the next day of dosing and the CNS were macroscopically observed.
# [1] = solubility of trehalose in water (saturated trehalose solution); type: physicochemical; conditions: 20° C.
# Protocol: FIGS. 4A-4G are graphs showing simulations of trehalose concentrations in human CSF to determine clinical dose regimens. The simulations assume that a CSF volume of a human is approximately 140 mL and that the CSF exchange rate is approximately […]. […] In the simulations, the trehalose is administered by a bolus injection, and is equally distributed in the CSF immediately after the injection. For the simulations below, a saturated trehalose solution was prepared by dissolving 68.9 g of trehalose per 100 g of water at 20° C.
# FIG. 4A is a graph 400 showing a simulation of trehalose concentration 410 in human CSF to determine a clinical dose regimen. In this example simulation, 9.8 g of trehalose was estimated to be required to achieve a 7 wt % trehalose concentration in the CSF immediately after injection.
# [2] = tested on: vasospasm associated with SAH; conditions: animal studies; high concentrations (~7%) in cranial ventricles; cited from earlier work
smiles,measurement,setting,value
COc1ccccc1Oc1c(NS(=O)(=O)c2ccc(C)cn2)nc(-c2ccnc(-c3nnn[nH]3)c2)nc1OCCO [Clozasentan],effect on vasospasm,ET-1,reversal of vasospasms in large arteries
"Cc1cc(-c2ccc(/N=N/c3ccc4c(S(=O)(=O)O)cc(S(=O)(=O)O)c(N)c4c3O)c(C)c2)ccc1/N=N/c1ccc2c(S(=O)(=O)O)cc(S(=O)(=O)O)c(N)c2c1O [Evans blue solution, Evans blue]",distribution after IT administration (macroscopic observation),rats,"distributed to the subarachnoid space of the cisterna magna, the bottom of the brain, and the cervical spinal cord in all animals"
same,distribution after IT administration (macroscopic observation),dogs,distributed to the subarachnoid space of the whole cerebral cortex
OC[C@H]1O[C@H](O[C@H]2O[C@H](CO)[C@@H](O)[C@H](O)[C@H]2O)[C@H](O)[C@@H](O)[C@@H]1O [trehalose],trehalose dissolved for a saturated solution,[1],68.9 g per 100 g of water
same,effect on inflammatory cascade and vasospasm associated with SAH,[2],significant inhibition of the inflammatory cascade and vasospasm
